According to US7868135B2, “Compositions of lipopeptide antibiotic derivatives and methods of use thereof” (priority 2003, dated 2011):
Where two headings read alike, the source gives them in different places.

Key:
[1] = tested on: Enterococcus faecium EFM0101 (VRE, MDR); assay: Broad spectrum MIC, Table 17/18 column A; assay type: cell-based; conditions: condition A of Table 17, in µg/mL
Description: (§1) The antimicrobial lipopeptide derivatives described herein were tested for antimicrobial activity against Gram-positive bacteria as follows. The minimum inhibitory concentrations (MIC) of the antimicrobial lipopeptide derivatives of the invention were determined using NCCLS guidelines M7-A6 (2003) with a slight modification in that doubling serial dilutions were used to dilute the test compounds. The broth phase microdilution method was used. Isolated colonies of Staphylococcus aureus (MSSA) from an 18-24 hour blood agar plate cultures were used to inoculate cation adjusted Mueller-Hinton broth (CAMHB) supplemented with 0.625 mM calcium. […] A negative control containing media alone and a positive growth control containing bacteria with media alone were also included. MICs were determined after incubating the plates at about 37° C. for 24 hours. […] In Tables 1 to 16, R is the core cyclic peptide of amphomycin or aspartocin, which can be in the form of a β-isomer, an anhydro, a dianhydro, or any combination thereof. […] Furthermore, a person of skill in the art will appreciate that all the pounds, or groups of compounds, derived from the various combinations of and substituents shown in Tables 1 to 16, are disclosed by the present the same extent as if each compound or group of compounds was set forth individually.
(§2) Antimicrobial lipopeptide derivatives of the instant invention were tested for antimicrobial activity against Gram-positive bacteria in a variety of media conditions. The […] (MIC) of the antimicrobial lipopeptide derivatives were determined as described in Example 376. The various media used are described in Table 17.

[2] = tested on: Enterococcus faecalis EFS0004 (VSE); assay: Broad spectrum MIC, Table 17/18 B, C, D (CAMHB; + 0.625 mM calcium; + calcium and 30% bovine serum); assay type: cell-based; conditions: in µg/mL; for MIC, media condition B: condition B: CAMHB; for MIC, media condition C: condition C: + 0.625 mM calcium; for MIC, media condition D: condition D: + calcium and 30% bovine serum
Description: as §1, §2

[3] = tested on: Staphylococcus aureus (MSSA)
How it was run: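 Broth microdilution MIC per NCCLS M7-A6 with doubling serial dilutions, in cation-adjusted Mueller-Hinton broth supplemented with 0.625 mM calcium.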

[4] = tested on: Staphylococcus epidermidis SEP0375 (MRSE); assay: Broad spectrum MIC, Table 17/18 column I; assay type: cell-based; conditions: condition I of Table 17, in µg/mL
Description: as §1, §2

[5] = tested on: Streptococcus pyogenes SPY0001 (PenS); assay: Broad spectrum MIC, Table 17/18 column M; assay type: cell-based; conditions: condition M of Table 17, in µg/mL
Description: as §1, §2

[6] = tested on: Staphylococcus aureus SAU0031 (VISA); assay: Broad spectrum MIC, Table 17/18 column G; assay type: cell-based; conditions: condition G of Table 17, in µg/mL
Description: as §1, §2

[7] = tested on: Staphylococcus aureus SAU0065 (MRSA); assay: Broad spectrum MIC, Table 17/18 column H; assay type: cell-based; conditions: condition H of Table 17, in µg/mL
Description: as §1, §2

[8] = tested on: Streptococcus pneumoniae SPN0023 (PRSP); assay: Broad spectrum MIC, Table 17/18 column K; assay type: cell-based; conditions: condition K of Table 17, in µg/mL
Description: as §1, §2

[9] = tested on: Streptococcus pneumoniae SPN0032 (PSSP); assay: Broad spectrum MIC, Table 17/18 column L; assay type: cell-based; conditions: condition L of Table 17, in µg/mL
Description: as §1, §2

[10] = tested on: Staphylococcus aureus SAU0017 (MSSA); assay: Broad spectrum MIC, Table 17/18 columns E, F (+ 0.625 mM calcium; + calcium and 30% bovine serum); assay type: cell-based; conditions: in µg/mL; for MIC, media condition E: condition E: + 0.625 mM calcium; for MIC, media condition F: condition F: + calcium and 30% bovine serum
Description: as §1, §2

[11] = tested on: Streptococcus pneumoniae SPN0002 (PISP); assay: Broad spectrum MIC, Table 17/18 column J; assay type: cell-based; conditions: condition J of Table 17, in µg/mL
Description: as §1, §2

Row | SMILES | MIC, media condition A [1] | MIC, media condition B [2] | MIC, media condition C [2] | MIC, media condition D [2] | MIC ([3]; 24 h) | MIC, media condition I [4] | MIC, media condition M [5] | MIC, media condition G [6] | MIC, media condition H [7] | MIC, media condition K [8] | MIC, media condition L [9] | MIC, media condition E [10] | MIC, media condition F [10] | MIC, media condition J [11] | MIC ([3]; S. aureus (MSSA), CAMHB supplemented with 0.625 mM calcium, 24 hours at about 37° C., a range = compound tested multiple times)
1 | CCCCCCCCCCCCCCC(=O)NC(CC(=O)O)C(=O)NC1C(=O)N2CCCCC2C(=O)NC(C(C)C(=O)O)C(=O)NC(CC(=O)O)C(=O)NCC(=O)NC(CC(=O)O)C(=O)NCC(=O)NC(C(C)NC(=O)[C@H]2CCCN2)C(=O)NC(C(C)C)C(=O)N2CCCC2C(=O)NC1C (stereo partly drawn) [Compound 67, C15-Amphomycin-9-(D-Pro)] | 2 | 2-4 | 2 | 64 | 1 to 2 µg/mL | 2 | 0.5-1 | 8 | 2 | 0.5 | 0.5 | 1-2 | 8-16 | 0.5 | –
2 | CCCCCCCCCCCCCCC(=O)NC(CC(=O)O)C(=O)NC1C(=O)N2CCCCC2C(=O)NC(C(C)C(=O)O)C(=O)NC(CC(=O)O)C(=O)NCC(=O)NC(CC(=O)O)C(=O)NCC(=O)NC(C(C)NC(=O)CNC(=O)[C@@H](C)N)C(=O)NC(C(C)C)C(=O)N2CCCC2C(=O)NC1C (stereo partly drawn) [Compound 69, C15-Amphomycin-9-Gly-(D-Ala)] | 4 | 8 | 4 | >64 | 1 µg/mL | 4 | 1 | 8 | 2 | 1 | 2 | 1 | 32 | 1 | –
3 | CCCCCCCCCCCCCCCCC(=O)NC(CC(=O)O)C(=O)NC1C(=O)N2CCCCC2C(=O)NC(C(C)C(=O)O)C(=O)NC(CC(=O)O)C(=O)NCC(=O)NC(CC(=O)O)C(=O)NCC(=O)NC(C(C)NC(=O)CCN)C(=O)NC(C(C)C)C(=O)N2CCCC2C(=O)NC1C (stereo not drawn) [Compound 80, C17-Amphomycin-9-(β-Ala)] | 0.5-1 | 0.5-1 | 0.5-1 | 64 | – | 1-2 | 0.25-0.5 | 8 | 2 | 0.125 | 0.25 | 0.5-1 | 16-32 | 0.125 | 80/0.5-1 μg/mL
4 | CCCCCCCCCCCCCCC(=O)NC(CC(=O)O)C(=O)NC1C(=O)N2CCCCC2C(=O)NC(C(C)C(=O)O)C(=O)NC(CC(=O)O)C(=O)NCC(=O)NC(CC(=O)O)C(=O)NCC(=O)NC(C(C)NC(=O)[C@@H]2CCCN2)C(=O)NC(C(C)C)C(=O)N2CCCC2C(=O)NC1C (stereo partly shown) [Compound 160, C15-Amphomycin-9-Pro] | 8 | 16 | 8 | >64 | 4 µg/mL | 4 | 2 | 16 | 4 | 0.25 | 2 | 4 | >64 | 0.5 | –

More lines, now with the values ahead:

Row | MIC, media condition A [1] | MIC, media condition B [2] | MIC, media condition C [2] | MIC, media condition D [2] | MIC ([3]; 24 h) | MIC, media condition I [4] | MIC, media condition M [5] | MIC, media condition G [6] | MIC, media condition H [7] | MIC, media condition K [8] | MIC, media condition L [9] | MIC, media condition E [10] | MIC, media condition F [10] | MIC, media condition J [11] | MIC ([3]; S. aureus (MSSA), CAMHB supplemented with 0.625 mM calcium, 24 hours at about 37° C., a range = compound tested multiple times) | SMILES
5 | 1-2 | 6-16 | 2-4 | 64 | 0.25 to 0.5 µg/mL | 0.5-1 | 0.25 | 4 | 1-2 | 0.125 | 0.25 | 0.25-0.5 | 8 | 0.25 | – | CCCCCCCCCCCCNC(=O)NC(CC(=O)O)C(=O)NC1C(=O)N2CCCCC2C(=O)NC(C(C)C(=O)O)C(=O)NC(CC(=O)O)C(=O)NCC(=O)NC(CC(=O)O)C(=O)NCC(=O)NC(C(C)NC(=O)CN)C(=O)NC(C(C)C)C(=O)N2CCCC2C(=O)NC1C (stereo not shown) [Compound 92, CH3—(CH2)11—NH—C(═O)-Amphomycin-9-Gly]
6 | 2 | 64 | 4 | 64 | 0.25 µg/mL | 1 | 0.5 | 4 | 1 | 0.25 | 0.125 | 0.25 | 16 | 0.125 | – | CCCCCCCCCCCCNC(=O)NC(CC(=O)O)C(=O)NC1C(=O)N2CCCCC2C(=O)NC(C(C)C(=O)O)C(=O)NC(CC(=O)O)C(=O)NCC(=O)NC(CC(=O)O)C(=O)NCC(=O)NC(C(C)NC(=O)CCN)C(=O)NC(C(C)C)C(=O)N2CCCC2C(=O)NC1C (stereo not drawn) [Compound 97, CH3—(CH2)11—NH—C(═O)-Amphomycin-9-(β-Ala)]
7 | 2 | 32 | 4 | >64 | 0.5 µg/mL | 1 | 0.5 | 4 | 1 | 0.25 | 0.5 | 0.5 | 16 | 0.125 | – | CCCCCCCCCCCCNC(=O)NC(CC(=O)O)C(=O)NC1C(=O)N2CCCCC2C(=O)NC(C(C)C(=O)O)C(=O)NC(CC(=O)O)C(=O)NCC(=O)NC(CC(=O)O)C(=O)NCC(=O)NC(C(C)NC(=O)CNC)C(=O)NC(C(C)C)C(=O)N2CCCC2C(=O)NC1C (stereo not shown) [Compound 98, CH3—(CH2)11—NH—C(═O)-Amphomycin-9-Sar]
8 | 4 | 8 | 4 | 32 | 2 µg/mL | 2 | 2 | 4 | 2 | 1 | 1 | 2 | 8 | 0.5 | – | CCCCCCCCCCCCNC(=O)NC(CC(=O)O)C(=O)NC1C(=O)N2CCCCC2C(=O)NC(C(C)C(=O)O)C(=O)NC(CC(=O)O)C(=O)NCC(=O)NC(CC(=O)O)C(=O)NCC(=O)NC(C(C)N)C(=O)NC(C(C)C)C(=O)N2CCCC2C(=O)NC1C (stereo not shown) [Compound 251, CH3—(CH2)11—NH—C(═O)-Amphomycin]
